Test results reported in US20260232767A1, “INTERLEUKIN-23 RECEPTOR ANTAGONIST PEPTIDES FOR USE IN THE TREATMENT OF PSORIASIS” (Janssen Pharmaceutica NV, priority 2023, published 2026).

Test system: subjects with moderate-to-severe plaque psoriasis
Test: Hematology and chemistry laboratory values by CTCAE grade
Format: in vivo, human
Details: through Week 56
Source text: The proportion of participants who discontinued study intervention due to one or more AEs was low (n=4). All events were singular in nature with no apparent dose-dependent increase (Table 48 and Table 52). The number of participants with abnormal hematology and chemistry laboratory values with CTCAE toxicity grade≥3 were low through the end of the study (Table 43 through Table 46). There was no apparent dose-dependent increase in laboratory abnormality occurrences.

SMILES: CC(=O)NCCCC[C@@H]1NC(=O)[C@H](Cc2c[nH]c3c(C)cccc23)NC(=O)[C@H]([C@@H](C)O)NC(=O)[C@H](CC(N)=O)NC(=O)[C@@H](NC(C)=O)C(C)(C)SSC(C)(C)[C@@H](C(=O)N[C@@H](Cc2ccc(OCCN)cc2)C(=O)N[C@@H](Cc2ccc3ccccc3c2)C(=O)NC2(C(=O)N[C@@H](CCC(=O)O)C(=O)N[C@@H](CC(N)=O)C(=O)N[C@@H](Cc3cccnc3)C(=O)N(C)CC(N)=O)CCOCC2)NC1=O [IL-23 receptor antagonist peptide, Ac-[Pen]*-N-T-[W(7-Me)]-[Lys(Ac)]-[Pen]*-Phe[4-(2-aminoethoxy)]-[2-Nal]-[THP]-E-N-[3-Pal]-Sarc-NH2 (*[Pen]-[Pen]* formdisulfidebond)]
- Platelets (×10^9/L) (decreased): subjects with Grade 1 (25 mg QD): 5
- Platelets (×10^9/L) (decreased): subjects with Grade 2 (25 mg QD): 0
- Platelets (×10^9/L) (decreased): subjects with Grade 3 (25 mg QD): 0
- Platelets (×10^9/L) (decreased): subjects with Grade 4 (25 mg QD): 0
- Platelets (×10^9/L) (decreased): subjects with postbaseline maximum toxicity grade >0 (25 mg QD): 5
- Potassium (decreased): Subjects with Grade 1 (25 mg QD): 0
- Potassium (decreased): Subjects with Grade 2 (25 mg QD): 0
- Potassium (decreased): Subjects with Grade 3 (25 mg QD): 0
- Potassium (decreased): Subjects with Grade 4 (25 mg QD): 0
- Potassium (decreased): Subjects with postbaseline maximum toxicity grade >0 (25 mg QD): 0
- Potassium (increased): Subjects with Grade 3 (25 mg QD): 0
- Potassium (increased): Subjects with Grade 4 (25 mg QD): 0
- Potassium (increased): Subjects with postbaseline maximum toxicity grade >0 (25 mg QD): 7
- Sodium (decreased): Subjects with Grade 2 (25 mg QD): 0
- Sodium (decreased): Subjects with Grade 3 (25 mg QD): 0
- Sodium (decreased): Subjects with Grade 4 (25 mg QD): 0
- Sodium (increased): Subjects with Grade 2 (25 mg QD): 0
- Sodium (increased): Subjects with Grade 3 (25 mg QD): 0
- Sodium (increased): Subjects with Grade 4 (25 mg QD): 0
- Total Bilirubin (increased): Subjects with Grade 2 (25 mg QD): 0
- Total Bilirubin (increased): Subjects with Grade 3 (25 mg QD): 0
- Total Bilirubin (increased): Subjects with Grade 4 (25 mg QD): 0
- Triglycerides (increased): Subjects with Grade 4 (25 mg QD): 0
- WBC (×10^9/L) (decreased): subjects with Grade 2 (25 mg QD): 0
- WBC (×10^9/L) (decreased): subjects with Grade 3 (25 mg QD): 0
- WBC (×10^9/L) (decreased): subjects with Grade 4 (25 mg QD): 0
- WBC (×10^9/L) (increased): subjects with Grade 1 (25 mg QD): 0
- WBC (×10^9/L) (increased): subjects with Grade 2 (25 mg QD): 0
- WBC (×10^9/L) (increased): subjects with Grade 3 (25 mg QD): 0
- WBC (×10^9/L) (increased): subjects with Grade 4 (25 mg QD): 0
- WBC (×10^9/L) (increased): subjects with postbaseline maximum toxicity grade >0 (25 mg QD): 0
- Alanine Aminotransferase (increased): Subjects with Grade 2 (50 mg QD): 0
- Alanine Aminotransferase (increased): Subjects with Grade 3 (50 mg QD): 0
- Alanine Aminotransferase (increased): Subjects with Grade 4 (50 mg QD): 0
- Albumin (decreased): Subjects with Grade 1 (50 mg QD): 0
- Albumin (decreased): Subjects with Grade 2 (50 mg QD): 0
- Albumin (decreased): Subjects with Grade 3 (50 mg QD): 0
- Albumin (decreased): Subjects with Grade 4 (50 mg QD): 0
- Albumin (decreased): Subjects with postbaseline maximum toxicity grade >0 (50 mg QD): 0
- Alkaline Phosphatase (increased): Subjects with Grade 2 (50 mg QD): 0
- Alkaline Phosphatase (increased): Subjects with Grade 3 (50 mg QD): 0
- Alkaline Phosphatase (increased): Subjects with Grade 4 (50 mg QD): 0
- Aspartate Aminotransferase (increased): Subjects with Grade 2 (50 mg QD): 0
- Aspartate Aminotransferase (increased): Subjects with Grade 3 (50 mg QD): 0
- Aspartate Aminotransferase (increased): Subjects with Grade 4 (50 mg QD): 0
- Calcium corrected (decreased): Subjects with Grade 2 (50 mg QD): 0
- Calcium corrected (decreased): Subjects with Grade 3 (50 mg QD): 0
- Calcium corrected (decreased): Subjects with Grade 4 (50 mg QD): 0
- Calcium corrected (increased): Subjects with Grade 1 (50 mg QD): 0
- Calcium corrected (increased): Subjects with Grade 2 (50 mg QD): 0
- Calcium corrected (increased): Subjects with Grade 3 (50 mg QD): 0
- Calcium corrected (increased): Subjects with Grade 4 (50 mg QD): 0
- Calcium corrected (increased): Subjects with postbaseline maximum toxicity grade >0 (50 mg QD): 0
- Cholesterol (increased): Subjects with Grade 2 (50 mg QD): 0
- Cholesterol (increased): Subjects with Grade 3 (50 mg QD): 0
- Cholesterol (increased): Subjects with Grade 4 (50 mg QD): 0
- Creatine Kinase (increased): Subjects with Grade 3 (50 mg QD): 0
- Creatinine (increased): Subjects with Grade 2 (50 mg QD): 0
- Creatinine (increased): Subjects with Grade 3 (50 mg QD): 0
- Creatinine (increased): Subjects with Grade 4 (50 mg QD): 0
- Gamma Glutamyl Transferase (increased): Subjects with Grade 2 (50 mg QD): 0
- Gamma Glutamyl Transferase (increased): Subjects with Grade 3 (50 mg QD): 0
- Gamma Glutamyl Transferase (increased): Subjects with Grade 4 (50 mg QD): 0
- Glucose (decreased): Subjects with Grade 2 (50 mg QD): 0
- Glucose (decreased): Subjects with Grade 3 (50 mg QD): 0
- Glucose (decreased): Subjects with Grade 4 (50 mg QD): 0
- Hemoglobin (g/L) (decreased): subjects with Grade 3 (50 mg QD): 0
- Hemoglobin (g/L) (decreased): subjects with Grade 4 (50 mg QD): 0
- Hemoglobin (g/L) (decreased): subjects with postbaseline maximum toxicity grade >0 (50 mg QD): 5
- Hemoglobin (g/L) (increased): subjects with Grade 1 (50 mg QD): 0
- Hemoglobin (g/L) (increased): subjects with Grade 2 (50 mg QD): 0
- Hemoglobin (g/L) (increased): subjects with Grade 3 (50 mg QD): 0
- Hemoglobin (g/L) (increased): subjects with Grade 4 (50 mg QD): 0
- Hemoglobin (g/L) (increased): subjects with postbaseline maximum toxicity grade >0 (50 mg QD): 0
- Lymphocytes (×10^9/L) (decreased): subjects with Grade 3 (50 mg QD): 0
- Lymphocytes (×10^9/L) (decreased): subjects with Grade 4 (50 mg QD): 0
- Lymphocytes (×10^9/L) (increased): subjects with Grade 1 (50 mg QD): 0
- Lymphocytes (×10^9/L) (increased): subjects with Grade 2 (50 mg QD): 0
- Lymphocytes (×10^9/L) (increased): subjects with Grade 3 (50 mg QD): 0
- Lymphocytes (×10^9/L) (increased): subjects with Grade 4 (50 mg QD): 0
- Lymphocytes (×10^9/L) (increased): subjects with postbaseline maximum toxicity grade >0 (50 mg QD): 0
- Magnesium (decreased): Subjects with Grade 1 (50 mg QD): 0
- Magnesium (decreased): Subjects with Grade 2 (50 mg QD): 0
- Magnesium (decreased): Subjects with Grade 3 (50 mg QD): 0
- Magnesium (decreased): Subjects with Grade 4 (50 mg QD): 0
- Magnesium (decreased): Subjects with postbaseline maximum toxicity grade >0 (50 mg QD): 0
- Magnesium (increased): Subjects with Grade 2 (50 mg QD): 0
- Magnesium (increased): Subjects with Grade 3 (50 mg QD): 0
- Magnesium (increased): Subjects with Grade 4 (50 mg QD): 0
- Neutrophils (×10^9/L) (decreased): subjects with Grade 3 (50 mg QD): 0
- Neutrophils (×10^9/L) (decreased): subjects with Grade 4 (50 mg QD): 0
- Platelets (×10^9/L) (decreased): subjects with Grade 1 (50 mg QD): 0
- Platelets (×10^9/L) (decreased): subjects with Grade 2 (50 mg QD): 0
- Platelets (×10^9/L) (decreased): subjects with Grade 3 (50 mg QD): 0
- Platelets (×10^9/L) (decreased): subjects with Grade 4 (50 mg QD): 0
- Platelets (×10^9/L) (decreased): subjects with postbaseline maximum toxicity grade >0 (50 mg QD): 0
- Potassium (decreased): Subjects with Grade 1 (50 mg QD): 0
- Potassium (decreased): Subjects with Grade 2 (50 mg QD): 0
- Potassium (decreased): Subjects with Grade 3 (50 mg QD): 0
- Potassium (decreased): Subjects with Grade 4 (50 mg QD): 0
- Potassium (decreased): Subjects with postbaseline maximum toxicity grade >0 (50 mg QD): 0
- Potassium (increased): Subjects with Grade 2 (50 mg QD): 0
- Potassium (increased): Subjects with Grade 4 (50 mg QD): 0
- Sodium (decreased): Subjects with Grade 1 (50 mg QD): 0
- Sodium (decreased): Subjects with Grade 2 (50 mg QD): 0
- Sodium (decreased): Subjects with Grade 3 (50 mg QD): 0
- Sodium (decreased): Subjects with Grade 4 (50 mg QD): 0
- Sodium (decreased): Subjects with postbaseline maximum toxicity grade >0 (50 mg QD): 0
- Sodium (increased): Subjects with Grade 1 (50 mg QD): 0
- Sodium (increased): Subjects with Grade 2 (50 mg QD): 0
- Sodium (increased): Subjects with Grade 3 (50 mg QD): 0
- Sodium (increased): Subjects with Grade 4 (50 mg QD): 0
- Sodium (increased): Subjects with postbaseline maximum toxicity grade >0 (50 mg QD): 0
- Total Bilirubin (increased): Subjects with Grade 3 (50 mg QD): 0
- Total Bilirubin (increased): Subjects with Grade 4 (50 mg QD): 0
- Total Bilirubin (increased): Subjects with postbaseline maximum toxicity grade >0 (50 mg QD): 5
- Triglycerides (increased): Subjects with Grade 1 (50 mg QD): 0
- Triglycerides (increased): Subjects with Grade 4 (50 mg QD): 0
- WBC (×10^9/L) (decreased): subjects with Grade 3 (50 mg QD): 0
- WBC (×10^9/L) (decreased): subjects with Grade 4 (50 mg QD): 0
- WBC (×10^9/L) (increased): subjects with Grade 1 (50 mg QD): 0
- WBC (×10^9/L) (increased): subjects with Grade 2 (50 mg QD): 0
- WBC (×10^9/L) (increased): subjects with Grade 3 (50 mg QD): 0
- WBC (×10^9/L) (increased): subjects with Grade 4 (50 mg QD): 0
- WBC (×10^9/L) (increased): subjects with postbaseline maximum toxicity grade >0 (50 mg QD): 0
- Alanine Aminotransferase (increased): Subjects with Grade 1 (100 mg BID): 10
- Alanine Aminotransferase (increased): Subjects with Grade 3 (100 mg BID): 0
- Alanine Aminotransferase (increased): Subjects with Grade 4 (100 mg BID): 0
- Albumin (decreased): Subjects with Grade 1 (100 mg BID): 0
- Albumin (decreased): Subjects with Grade 2 (100 mg BID): 0
- Albumin (decreased): Subjects with Grade 3 (100 mg BID): 0
- Albumin (decreased): Subjects with Grade 4 (100 mg BID): 0
- Albumin (decreased): Subjects with postbaseline maximum toxicity grade >0 (100 mg BID): 0
- Alkaline Phosphatase (increased): Subjects with Grade 1 (100 mg BID): 0
- Alkaline Phosphatase (increased): Subjects with Grade 2 (100 mg BID): 0
- Alkaline Phosphatase (increased): Subjects with Grade 3 (100 mg BID): 0
- Alkaline Phosphatase (increased): Subjects with Grade 4 (100 mg BID): 0
- Alkaline Phosphatase (increased): Subjects with postbaseline maximum toxicity grade >0 (100 mg BID): 0
- Aspartate Aminotransferase (increased): Subjects with Grade 1 (100 mg BID): 7
- Aspartate Aminotransferase (increased): Subjects with Grade 4 (100 mg BID): 0
- Aspartate Aminotransferase (increased): Subjects with postbaseline maximum toxicity grade >0 (100 mg BID): 9
- Calcium corrected (decreased): Subjects with Grade 3 (100 mg BID): 0
- Calcium corrected (decreased): Subjects with Grade 4 (100 mg BID): 0
- Calcium corrected (increased): Subjects with Grade 1 (100 mg BID): 0
- Calcium corrected (increased): Subjects with Grade 2 (100 mg BID): 0
- Calcium corrected (increased): Subjects with Grade 3 (100 mg BID): 0
- Calcium corrected (increased): Subjects with Grade 4 (100 mg BID): 0
- Calcium corrected (increased): Subjects with postbaseline maximum toxicity grade >0 (100 mg BID): 0
- Cholesterol (increased): Subjects with Grade 2 (100 mg BID): 0
- Cholesterol (increased): Subjects with Grade 3 (100 mg BID): 0
- Cholesterol (increased): Subjects with Grade 4 (100 mg BID): 0
